Columns and labels:
Wheat [1] = test: Comparison test with prior art compound A, post-emergence herbicidal action (Example B4); type: in vivo; conditions: 125 g/ha, crop plant, rating scale 10=total damage, 0=no action
Excerpt: (§1) The post-emergence herbicidal action of compound no. 1.095 according to the invention was compared with compound A, which is described as compound no.

Stellaria [2] = test: as above; type: in vivo; conditions: 125 g/ha, rating scale 10=total damage, 0=no action
Excerpt: as §1

Sinapis = test: as above; type: in vivo; conditions: 125 g/ha, rating scale 10=total damage, 0=no action
Excerpt: as §1

Sida [3] = test: as above; type: in vivo; conditions: 125 g/ha, rating scale 10=total damage, 0=no action
Excerpt: as §1

Maize [4] = test: as above; type: in vivo; conditions: 125 g/ha, crop plant, rating scale 10=total damage, 0=no action
Excerpt: as §1

Polygonum = test: Comparison test with prior art compound B, post-emergence herbicidal action (Example B5); type: in vivo; conditions: 125 g/ha, rating scale 10=total damage, 0=no action
Excerpt: (§2) The post-emergence herbicidal action of compound no. 1.096 according to the invention was compared with compound B, which is described as compound no. 2.088 on page 83,

Wheat [5] = test: as above; type: in vivo; conditions: 125 g/ha
Excerpt: as §2

Galium [6] = test: as above; type: in vivo; conditions: 125 g/ha, rating scale 10=total damage, 0=no action
Excerpt: as §2

Stellaria [7] = test: as above; type: in vivo; conditions: 125 g/ha, rating scale 10=total damage, 0=no action
Excerpt: as §2

Maize [8] = test: as above; type: in vivo; conditions: 125 g/ha
Excerpt: as §2

Ipomea [9] = test: as above; type: in vivo; conditions: 125 g/ha, rating scale 10=total damage, 0=no action
Excerpt: as §2

Galium [10] = test: Comparison test with prior art compound A, post-emergence herbicidal action (Example B4); type: in vivo; conditions: 125 g/ha, rating scale 10=total damage, 0=no action
Excerpt: as §1

Amaranthus [11] = test: as above; type: in vivo; conditions: 125 g/ha, rating scale 10=total damage, 0=no action
Excerpt: as §1

Ipomea [12] = test: as above; type: in vivo; conditions: 125 g/ha, rating scale 10=total damage, 0=no action
Excerpt: as §1

Solanum = test: Microscreen, post-emergence herbicidal action (Example B3); type: in vivo; conditions: 250 g/ha, evaluated after 9 or 13 days, scale of eleven ratings (10=total damage, 0=no action)
Method: (§3) Example B3 Microscreen, Post-Emergence Herbicidal Action Monocotyledonous and dicotyledonous test plants are sown in sterilised standard soil in seed trays each having 96 cells. […] The plants are grown on in the climatic chamber until the test is evaluated after 9 or 13 days. The test is evaluated in accordance with a scale of eleven ratings (10=total damage, 0=no action). Ratings of from 10 to 7 (especially from 10 to 8) indicate very good to good herbicidal action.

Amaranthus [13] = test: as above; type: in vivo; conditions: 250 g/ha, evaluated after 9 or 13 days, scale of eleven ratings (10=total damage, 0=no action)
Method: as §3

Nasturtium = test: as above; type: in vivo; conditions: 250 g/ha, evaluated after 9 or 13 days, scale of eleven ratings (10=total damage, 0=no action)
Method: as §3

Stellaria [14] = test: as above; type: in vivo; conditions: 250 g/ha, evaluated after 9 or 13 days, scale of eleven ratings (10=total damage, 0=no action)
Method: (§4) Example B3 Microscreen, Post-Emergence Herbicidal Action Monocotyledonous and dicotyledonous test plants are sown in sterilised standard soil in seed trays each having 96 cells. After 8 to 9 days' cultivation under controlled conditions in a climatic chamber (cultivation at 17/23° C.; 13 hours' light; 50-60% humidity; after application at 19/24° C.), the plants are treated with an aqueous spray solution of 1000 mg/l of the active ingredient used ([…]; incl. 10% DMSO as solvent). The plants are grown on in the climatic chamber until the test is evaluated after 9 or 13 days. The test is evaluated in accordance with a scale of eleven ratings (10=total damage, 0=no action). Ratings of from 10 to 7 (especially from 10 to 8) indicate very good to good herbicidal action.

Digitaria [15] = test: as above; type: in vivo; conditions: 250 g/ha, evaluated after 9 or 13 days, scale of eleven ratings (10=total damage, 0=no action)
Method: as §4

Bromus = test: Comparison test with prior art compound B, post-emergence herbicidal action (Example B5); type: in vivo; conditions: 125 g/ha, rating scale 10=total damage, 0=no action
Excerpt: as §2

Sida [16] = test: as above; type: in vivo; conditions: 125 g/ha, rating scale 10=total damage, 0=no action
Excerpt: as §2

Xanthium = test: Post-emergence herbicidal action (Example B2); type: in vivo; conditions: 250 g/ha, after about 18 days, rating scale 10=total damage, 0=no action
Outline: (§5)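 Greenhouse-grown plants at the 4- to 6-leaf stage sprayed with compound as wettable-powder suspension or emulsifiable-concentrate emulsion at 125 and 250 g a.i./ha (500 L water/ha). Damage scored after about 18 days on an 11-point scale (0 = no action, 10 = total damage).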

Amaranthus [17] = test: Post-emergence herbicidal action (Example B2); type: in vivo; conditions: 250 g/ha, after about 18 days, rating scale 10=total damage, 0=no action
Outline: as §5

Euphorbia = test: Post-emergence herbicidal action (Example B2); type: in vivo; conditions: 250 g/ha, after about 18 days, rating scale 10=total damage, 0=no action
Outline: as §5

Stellaria [18] = test: Post-emergence herbicidal action (Example B2); type: in vivo; conditions: 250 g/ha, after about 18 days, rating scale 10=total damage, 0=no action
Outline: as §5

Panicum [19] = test: Post-emergence herbicidal action (Example B2); type: in vivo; conditions: 250 g/ha, after about 18 days, rating scale 10=total damage, 0=no action
Outline: as §5

Chenopodium [20] = test: Post-emergence herbicidal action (Example B2); type: in vivo; conditions: 250 g/ha, after about 18 days, rating scale 10=total damage, 0=no action
Outline: as §5

Echinochloa [21] = test: Post-emergence herbicidal action (Example B2); type: in vivo; conditions: 250 g/ha, after about 18 days, rating scale 10=total damage, 0=no action
Outline: as §5

Abutilon = test: Pre-emergence herbicidal action (Example B1); type: in vivo; conditions: 250 g/ha, after 4 weeks, rating scale 10=total damage, 0=no action
Method: (§6) Monocotyledonous and dicotyledonous test plants are sown in standard soil in pots or seed trays. Immediately after sowing, the test compounds, in the form of an aqueous suspension (prepared from a wettable powder (Example F3, b) according to WO 97/34485) or in the form of an emulsion (prepared from an emulsifiable concentrate (Example F1, c) according to WO 97/34485), are applied by spraying in a concentration of 250 g/ha. The test plants are then grown in a greenhouse under optimum conditions. After a test duration of 4 weeks, the test is evaluated in accordance with a scale of eleven ratings (10=total damage, 0=no action). Ratings of from 10 to 7 (especially from 10 to 8) indicate very good to good herbicidal action.

Amaranthus [22] = test: Pre-emergence herbicidal action (Example B1); type: in vivo; conditions: 250 g/ha, after 4 weeks, rating scale 10=total damage, 0=no action
Method: as §6

Panicum [23] = test: Pre-emergence herbicidal action (Example B1); type: in vivo; conditions: 250 g/ha, after 4 weeks, rating scale 10=total damage, 0=no action
Method: as §6

Chenopodium [24] = test: Pre-emergence herbicidal action (Example B1); type: in vivo; conditions: 250 g/ha, after 4 weeks, rating scale 10=total damage, 0=no action
Method: as §6

Digitaria [25] = test: Pre-emergence herbicidal action (Example B1); type: in vivo; conditions: 250 g/ha, after 4 weeks, rating scale 10=total damage, 0=no action
Method: as §6

Scirpus = test: Pre-emergence herbicidal action (Example B1); type: in vivo; conditions: 250 g/ha, after 4 weeks, rating scale 10=total damage, 0=no action
Method: as §6

Echinochloa [26] = test: Pre-emergence herbicidal action (Example B1); type: in vivo; conditions: 250 g/ha, after 4 weeks, rating scale 10=total damage, 0=no action
Method: as §6

[27] = crop plant, rating scale 10=total damage, 0=no action

SMILES	Post-emergence action: Xanthium (Xanthium)	Post-emergence action: Amaranthus (Amaranthus [17])	Post-emergence action: Euphorbia (Euphorbia)	Post-emergence action: Stellaria (Stellaria [18])	Post-emergence action: Panicum (Panicum [19])	Post-emergence action: Chenopodium (Chenopodium [20])	Post-emergence action: Echinochloa (Echinochloa [21])	Pre-emergence action: Abutilon (Abutilon)	Pre-emergence action: Amaranthus (Amaranthus [22])	Pre-emergence action: Panicum (Panicum [23])	Pre-emergence action: Chenopodium (Chenopodium [24])	Pre-emergence action: Digitaria (Digitaria [25])	Pre-emergence action: Scirpus (Scirpus)	Pre-emergence action: Echinochloa (Echinochloa [26])	further results
O=C1CCCC(O)=C1C(=O)c1ncc(C(F)(F)F)cc1Cl [A, reference compound]	–	–	–	–	–	–	–	–	–	–	–	–	–	–	Post-emergence herbicidal action: Wheat (Wheat [1]): 0; Post-emergence herbicidal action: Stellaria (Stellaria [2]): 9; Post-emergence herbicidal action: Sinapis (Sinapis): 6; Post-emergence herbicidal action: Sida (Sida [3]): 2; Post-emergence herbicidal action: Maize (Maize [4]): 0
COc1nc(C(=O)C2=C(O)C3CCC(C3)C2=O)ccc1C(F)(F)F (stereo not shown) [B, reference compound]	–	–	–	–	–	–	–	–	–	–	–	–	–	–	Post-emergence herbicidal action: Polygonum (Polygonum): 4; Post-emergence herbicidal action: Wheat (Wheat [5]; [27]): 2; phytotoxicity to wheat (Wheat [5]; post-emergence): 20%; Post-emergence herbicidal action: Galium (Galium [6]): 4; Post-emergence herbicidal action: Stellaria (Stellaria [7]): 6; Post-emergence herbicidal action: Maize (Maize [8]; [27]): 2; phytotoxicity to maize (Maize [8]; post-emergence): 20%; Post-emergence herbicidal action: Ipomea (Ipomea [9]): 6
O=C1CCCC(O)=C1C(=O)c1ccc(C(F)(F)F)c(Cl)n1 [Compound 1.095]	–	–	–	–	–	–	–	–	–	–	–	–	–	–	Post-emergence herbicidal action: Wheat (Wheat [1]): 0; Post-emergence herbicidal action: Galium (Galium [10]): 6; Post-emergence herbicidal action: Amaranthus (Amaranthus [11]): 7; Post-emergence herbicidal action: Stellaria (Stellaria [2]): 8; Post-emergence herbicidal action: Sinapis (Sinapis): 7; Post-emergence herbicidal action: Sida (Sida [3]): 5; Post-emergence herbicidal action: Maize (Maize [4]): 0; Post-emergence herbicidal action: Ipomea (Ipomea [12]): 7; Solanum, herbicidal action rating (Solanum): 7; Amaranthus, herbicidal action rating (Amaranthus [13]): 7; Nasturtium, herbicidal action rating (Nasturtium): 9; Stellaria, herbicidal action rating (Stellaria [14]): 7; Digitaria, herbicidal action rating (Digitaria [15]): 3
COc1nc(C(=O)C2=C(O)CCCC2=O)ccc1C(F)(F)F [Compound 1.096]	–	–	–	–	–	–	–	–	–	–	–	–	–	–	Post-emergence herbicidal action: Polygonum (Polygonum): 8; Post-emergence herbicidal action: Galium (Galium [6]): 8; Post-emergence herbicidal action: Stellaria (Stellaria [7]): 8; Post-emergence herbicidal action: Bromus (Bromus): 5; Post-emergence herbicidal action: Sida (Sida [16]): 7; Post-emergence herbicidal action: Ipomea (Ipomea [9]): 7; melting point: 80 to 81 °C; Solanum, herbicidal action rating (Solanum): 9; Amaranthus, herbicidal action rating (Amaranthus [13]): 9; Nasturtium, herbicidal action rating (Nasturtium): 10; Stellaria, herbicidal action rating (Stellaria [14]): 9; Digitaria, herbicidal action rating (Digitaria [15]): 8
CC1CC(=O)C(C(=O)c2ccc(C(F)(F)F)c(N3CCOCC3)n2)=C(O)C1 (stereo not shown) [Compound 3.069]	8	8	5	7	8	10	7	10	10	10	6	10	5	10	–
CC1CCC(O)=C(C(=O)c2ccc(C(F)(F)F)c(N3CCOCC3)n2)C1=O (stereo not shown) [Compound 3.071]	8	8	7	8	9	10	8	9	8	10	6	10	8	10	–
CC1(C)CCC(O)=C(C(=O)c2ccc(C(F)(F)F)c(N3CCOCC3)n2)C1=O [Compound 3.072]	8	7	7	8	8	9	7	9	3	9	8	10	7	10	–
CC1CC(O)=C(C(=O)c2ccc(C(F)(F)F)c(N3CCOCC3)n2)C(=O)C1(C)C (stereo not shown) [Compound 3.073]	7	4	7	7	7	9	8	5	0	10	7	9	7	7	–
